Experimental findings from patent US6808904B2, “Herbicide-tolerant protox genes produced by DNA shuffling” (priority 1994, dated 2004) are described below.

Common to all, as to test: Bacterial cross-tolerance testing of resistant mutant plasmids in SASX38, Arabidopsis protox-1 mutants
What all share (assay type): cell-based
Holding throughout (set-up): key to Cross tolerance, AraC-1Val / Cross tolerance, AraC-2Cys / Cross tolerance, AraC-1Thr / Cross tolerance, AraC-3Thr / Cross tolerance, AraC-2Ile / Cross tolerance, AraC-2Cys + AraC425Ser: + = 10× or more tolerant than WT; ++ = 100× or more tolerant than WT; − = no cross tolerance

Test [1] has as its target T1, plant protox mutants (Arabidopsis protox-1) in SASX38 (Arabidopsis thaliana, UniProt P55826, A220V/T56K).
T1 construct: contains only 17 amino acids of the putative chloroplast transit peptide; expressed in transfected cells; host or cells: E. coli SASX38 (hemG mutant)
As to conditions: mutant AraC-1Val vs WT plasmid in SASX38. The protocol: (§1) Resistant mutant plasmids, originally identified based on resistance against a single protox inhibitory herbicide, were tested against a spectrum of other protox inhibiting compounds. For this test, the SASX38 strain containing the wild-type plasmid is plated on a range of concentrations of each compound to determine the lethal concentration for each one. Resistant mutant plasmids in SASX38 are plated and scored for the ability to survive on a concentration of each compound at least 10 fold higher than the concentration that is lethal to the SASX38 strain containing the wild-type plasmid.

Test [2] deals with T2, plant protox mutants (Arabidopsis protox-1) in SASX38 (Arabidopsis thaliana, UniProt P55826, A220L/T56K/Y426M).
T2 construct: contains only 17 amino acids of the putative chloroplast transit peptide; expressed in transfected cells; host or cells: E. coli SASX38 (hemG mutant)
T2 sequence (P55826 41-537 T56K/A220L/Y426M): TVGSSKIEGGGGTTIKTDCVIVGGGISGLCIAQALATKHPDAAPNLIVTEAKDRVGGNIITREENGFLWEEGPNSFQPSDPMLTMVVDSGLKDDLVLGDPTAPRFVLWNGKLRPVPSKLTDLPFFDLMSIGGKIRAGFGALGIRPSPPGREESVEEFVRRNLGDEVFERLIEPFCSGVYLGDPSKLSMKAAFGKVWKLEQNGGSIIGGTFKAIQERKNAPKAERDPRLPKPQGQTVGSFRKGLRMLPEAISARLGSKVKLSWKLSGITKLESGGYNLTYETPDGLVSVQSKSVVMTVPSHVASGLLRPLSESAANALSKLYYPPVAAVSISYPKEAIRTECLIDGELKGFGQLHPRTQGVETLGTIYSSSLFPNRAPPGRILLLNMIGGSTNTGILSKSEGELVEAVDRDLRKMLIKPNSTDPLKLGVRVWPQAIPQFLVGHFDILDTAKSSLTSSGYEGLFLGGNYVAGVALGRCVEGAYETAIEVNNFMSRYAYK
As to conditions: mutant AraC-1Leu + AraC-2Met. The method, then: as §1

Test [3] deals with T3, plant protox mutants (Arabidopsis protox-1) in SASX38 (Arabidopsis thaliana, UniProt P55826, A220T/T56K).
T3 construct: contains only 17 amino acids of the putative chloroplast transit peptide; expressed in transfected cells; host or cells: E. coli SASX38 (hemG mutant)
T3 sequence (P55826 41-537 T56K/A220T): as the sequence (P55826 41-537 T56K/A220L/Y426M) above, with L180T, M386Y counted along it
As to conditions: mutant AraC-1Thr vs WT plasmid in SASX38. The protocol:
as §1

Test [4] concerns the target T4, plant protox mutants (Arabidopsis protox-1) in SASX38 (Arabidopsis thaliana, UniProt P55826, S305L/T56K/Y426I).
T4 construct: contains only 17 amino acids of the putative chloroplast transit peptide; expressed in transfected cells; host or cells: E. coli SASX38 (hemG mutant)
As to conditions: mutant AraC-2Ile + AraC305Leu. The protocol:
as §1

For test [5], the target named is T5, plant protox mutants (Arabidopsis protox-1) in SASX38 (Arabidopsis thaliana, UniProt P55826, N425S/T56K/Y426C).
T5 construct: contains only 17 amino acids of the putative chloroplast transit peptide; expressed in transfected cells; host or cells: E. coli SASX38 (hemG mutant)
T5 sequence (P55826 41-537 T56K/N425S/Y426C): as the sequence (P55826 41-537 T56K/A220L/Y426M) above, with L180A, N385S, M386C counted along it
As to conditions: mutant AraC-2Cys + AraC425Ser. The protocol:
as §1

Test [6] addresses T6, plant protox mutants (Arabidopsis protox-1) in SASX38 (Arabidopsis thaliana, UniProt P55826, T56K/Y426C).
T6 construct: contains only 17 amino acids of the putative chloroplast transit peptide; expressed in transfected cells; host or cells: E. coli SASX38 (hemG mutant)
As to conditions: mutant AraC-2Cys vs WT plasmid in SASX38. The protocol:
as §1

The target in test [7] is T7, plant protox mutants (Arabidopsis protox-1) in SASX38 (Arabidopsis thaliana, UniProt P55826, A220L/T56K).
T7 construct: contains only 17 amino acids of the putative chloroplast transit peptide; expressed in transfected cells; host or cells: E. coli SASX38 (hemG mutant)
T7 sequence (P55826 41-537 T56K/A220L): as the sequence (P55826 41-537 T56K/A220L/Y426M) above, with M386Y counted along it
As to conditions: mutant AraC-1Leu. The method, then: as §1

The target of test [8] is T8, plant protox mutants (Arabidopsis protox-1) in SASX38 (Arabidopsis thaliana, UniProt P55826, N425S/T56K/Y426L).
T8 construct: contains only 17 amino acids of the putative chloroplast transit peptide; expressed in transfected cells; host or cells: E. coli SASX38 (hemG mutant)
T8 sequence (P55826 41-537 T56K/N425S/Y426L): as the sequence (P55826 41-537 T56K/A220L/Y426M) above, with L180A, N385S, M386L counted along it
As to conditions: mutant AraC-2Leu + AraC425Ser. The method, then:
as §1

In test [9] the test system is plant protox mutants (Arabidopsis protox-1) in SASX38. As to conditions: mutant AraC-3Thr vs WT plasmid in SASX38. The protocol: as §1
The target in test [10] is T9, plant protox mutants (Arabidopsis protox-1) in SASX38 (Arabidopsis thaliana, UniProt P55826, A220L/T56K/Y426L).
T9 construct: contains only 17 amino acids of the putative chloroplast transit peptide; expressed in transfected cells; host or cells: E. coli SASX38 (hemG mutant)
T9 sequence (P55826 41-537 T56K/A220L/Y426L): as the sequence (P55826 41-537 T56K/A220L/Y426M) above, with M386L counted along it
As to conditions: mutant AraC-1Leu + AraC-2Leu. The protocol:
as §1

T4 sequence (P55826 41-537 T56K/S305L/Y426I): as the sequence (P55826 41-537 T56K/A220L/Y426M) above, with L180A, S265L, M386I counted along it
T1 sequence (P55826 41-537 T56K/A220V): as the sequence (P55826 41-537 T56K/A220L/Y426M) above, with L180V, M386Y counted along it
T6 sequence (P55826 41-537 T56K/Y426C): as the sequence (P55826 41-537 T56K/A220L/Y426M) above, with L180A, M386C counted along it

For `CCOC(=O)COC(=O)c1cc(Oc2ccc(C(F)(F)F)cc2Cl)ccc1[N+](=O)[O-]` [IV], the “Cross tolerance, AraC-1Val” value in test [1] is on record as “++ (++ = 100× or more tolerant than WT)”. In addition, in [2], the “Cross tolerance, AraC-1Leu + AraC-2Met” value is on record as “+ (+ = 10× or more tolerant than WT)”. In test [3], the “Cross tolerance, AraC-1Thr” value was “++ (++ = 100× or more tolerant than WT)”. For the same compound, in test [4], the “Cross tolerance, AraC-2Ile + AraC305Leu” value is listed as “+ (+ = 10× or more tolerant than WT)”. Also, in [5], the “Cross tolerance, AraC-2Cys + AraC425Ser” value is recorded as “−”. The “Cross tolerance, AraC-2Cys” value in test [6] is listed as “−”. Moreover, the “Cross tolerance, AraC-1Leu” value in test [7] is “++ (++ = 100× or more tolerant than WT)”. Also, the “Cross tolerance, AraC-2Leu + AraC425Ser” value in test [8] was “+ (+ = 10× or more tolerant than WT)”. Further, the “Cross tolerance, AraC-3Thr” value in [9] is given as “++ (++ = 100× or more tolerant than WT)”. Further, the “Cross tolerance, AraC-1Leu + AraC-2Leu” value in [10] is reported as “++ (++ = 100× or more tolerant than WT)”.

Consider `COC(=O)CSc1cc(N=c2sc(=O)n3n2CCCC3)c(F)cc1Cl` [VIIa], for which the “Cross tolerance, AraC-1Val” value in test [1] was “+ (+ = 10× or more tolerant than WT)”. In addition, the “Cross tolerance, AraC-1Leu + AraC-2Met” value in test [2] is “++ (++ = 100× or more tolerant than WT)”. Also, the “Cross tolerance, AraC-1Thr” value in test [3] is listed as “+ (+ = 10× or more tolerant than WT)”. Further, in [4], the “Cross tolerance, AraC-2Ile + AraC305Leu” value is on record as “++ (++ = 100× or more tolerant than WT)”. The “Cross tolerance, AraC-2Cys + AraC425Ser” value in [5] is on record as “++ (++ = 100× or more tolerant than WT)”. The “Cross tolerance, AraC-2Cys” value in test [6] is “+ (+ = 10× or more tolerant than WT)”. The “Cross tolerance, AraC-1Leu” value in test [7] was “++ (++ = 100× or more tolerant than WT)”. In addition, the “Cross tolerance, AraC-2Leu + AraC425Ser” value in [8] is recorded as “++ (++ = 100× or more tolerant than WT)”. In test [9], the “Cross tolerance, AraC-3Thr” value was “−”. In addition, the “Cross tolerance, AraC-1Leu + AraC-2Leu” value in test [10] is listed as “++ (++ = 100× or more tolerant than WT)”.

In the case of `CCCCCOC(=O)COc1cc(N2C(=O)C3=C(CCCC3)C2=O)c(F)cc1Cl` [XIV], the “Cross tolerance, AraC-1Val” value in test [1] is recorded as “+ (+ = 10× or more tolerant than WT)”. Also, the “Cross tolerance, AraC-1Leu + AraC-2Met” value in test [2] is “++ (++ = 100× or more tolerant than WT)”. The “Cross tolerance, AraC-1Thr” value in [3] is on record as “+ (+ = 10× or more tolerant than WT)”. Further, the “Cross tolerance, AraC-2Ile + AraC305Leu” value in [4] is given as “++ (++ = 100× or more tolerant than WT)”. Moreover, in test [5], the “Cross tolerance, AraC-2Cys + AraC425Ser” value is recorded as “−”. The “Cross tolerance, AraC-2Cys” value in test [6] is “−”. Further, in test [7], the “Cross tolerance, AraC-1Leu” value was “++ (++ = 100× or more tolerant than WT)”. In [8], the “Cross tolerance, AraC-2Leu + AraC425Ser” value is “++ (++ = 100× or more tolerant than WT)”. In addition, the “Cross tolerance, AraC-3Thr” value in test [9] is “+ (+ = 10× or more tolerant than WT)”. Further, the “Cross tolerance, AraC-1Leu + AraC-2Leu” value in [10] was “++ (++ = 100× or more tolerant than WT)”.

For `CC(C)OC(=O)c1cc(-n2c(=O)cc(C(F)(F)F)n(C)c2=O)ccc1Cl` [XI], the “Cross tolerance, AraC-1Val” value in test [1] is “−”. Besides, the “Cross tolerance, AraC-1Leu + AraC-2Met” value in [2] is given as “++ (++ = 100× or more tolerant than WT)”. Moreover, the “Cross tolerance, AraC-1Thr” value in test [3] is “+ (+ = 10× or more tolerant than WT)”. The “Cross tolerance, AraC-2Ile + AraC305Leu” value in test [4] is “++ (++ = 100× or more tolerant than WT)”. For the same compound, the “Cross tolerance, AraC-2Cys + AraC425Ser” value in test [5] was “++ (++ = 100× or more tolerant than WT)”. The “Cross tolerance, AraC-2Cys” value in [6] is given as “+ (+ = 10× or more tolerant than WT)”. For the same compound, the “Cross tolerance, AraC-1Leu” value in test [7] is given as “++ (++ = 100× or more tolerant than WT)”. The “Cross tolerance, AraC-2Leu + AraC425Ser” value in [8] is given as “++ (++ = 100× or more tolerant than WT)”. The “Cross tolerance, AraC-3Thr” value in [9] is listed as “++ (++ = 100× or more tolerant than WT)”. For the same compound, the “Cross tolerance, AraC-1Leu + AraC-2Leu” value in [10] is on record as “++ (++ = 100× or more tolerant than WT)”.
